{
  "source": "patent US8981084B2",
  "about": "“Oxadiazole HDAC inhibitors” (Tempero Pharmaceuticals, Inc., priority 2011, dated 2015)",
  "target": "T1, Recombinant HDAC9 isoform 4 (Homo sapiens, UniProt Q9UKV0)",
  "T1 construct": "purchased BPS Bioscience",
  "T1 sequence (Q9UKV0 1-1066 isoform Q9UKV0-5)": "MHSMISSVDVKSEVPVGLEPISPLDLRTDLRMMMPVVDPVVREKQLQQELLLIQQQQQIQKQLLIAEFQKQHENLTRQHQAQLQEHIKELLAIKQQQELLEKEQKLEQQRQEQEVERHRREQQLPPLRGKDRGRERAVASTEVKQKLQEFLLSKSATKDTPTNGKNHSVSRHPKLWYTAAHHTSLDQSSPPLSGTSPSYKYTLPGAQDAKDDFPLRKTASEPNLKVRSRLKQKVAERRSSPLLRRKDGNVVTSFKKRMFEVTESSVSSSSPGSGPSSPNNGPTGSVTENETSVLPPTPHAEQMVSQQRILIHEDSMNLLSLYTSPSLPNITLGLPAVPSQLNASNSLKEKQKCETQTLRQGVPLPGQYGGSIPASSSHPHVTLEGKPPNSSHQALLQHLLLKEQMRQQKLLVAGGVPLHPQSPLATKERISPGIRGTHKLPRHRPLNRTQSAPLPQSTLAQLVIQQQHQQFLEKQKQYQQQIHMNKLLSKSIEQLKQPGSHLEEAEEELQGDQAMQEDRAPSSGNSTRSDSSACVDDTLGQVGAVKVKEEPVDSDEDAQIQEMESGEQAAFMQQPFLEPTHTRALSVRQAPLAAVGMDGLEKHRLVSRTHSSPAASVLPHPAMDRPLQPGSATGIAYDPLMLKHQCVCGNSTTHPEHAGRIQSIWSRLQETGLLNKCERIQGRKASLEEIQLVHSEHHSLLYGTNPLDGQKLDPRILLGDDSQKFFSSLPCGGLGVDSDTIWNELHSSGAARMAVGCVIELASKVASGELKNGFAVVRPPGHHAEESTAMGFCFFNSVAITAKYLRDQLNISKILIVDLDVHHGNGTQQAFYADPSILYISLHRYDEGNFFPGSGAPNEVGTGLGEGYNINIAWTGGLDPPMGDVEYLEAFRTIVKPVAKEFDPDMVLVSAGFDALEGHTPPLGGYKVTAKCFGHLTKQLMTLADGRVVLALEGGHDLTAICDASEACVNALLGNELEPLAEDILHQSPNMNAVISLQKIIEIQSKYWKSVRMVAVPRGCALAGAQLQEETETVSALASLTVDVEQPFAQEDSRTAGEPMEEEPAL",
  "experiment": "Histone Deacetylase 9 (HDAC9) inhibition assay, fluorogenic substrate",
  "assay_type": "biochemical",
  "details": "mean of a minimum of 2 experiments; 11 point 3x dilution series from 100 uM; Class IIa HDAC-specific fluorogenic substrate 4.5 uM; read-out: mean pIC50, inhibition of HDAC9 (converted)",
  "text": "Histone Deacetylase 9 (HDAC9) Inhibition Assay:\nNovel histone deacetylase 9 (HDAC9) inhibitors were characterized in an in vitro biochemical functional assay. The assay measures the increased fluorescent signal due to deacetylation, by HDAC9, of a fluorogenic substrate. The commercial available substrate is Class IIa HDAC-specific and contains an acetylated lysine residue and would releases the fluorescent signal upon trypsin cleavage after deacetylation.\nSpecifically, test compounds diluted to various concentrations in 100% DMSO are first dispensed into 384-well assay plates. Recombinant HDAC9 isoform 4 (purchased from BPS Bioscience) in complete assay buffer (50 mM Tris-HCl, pH 8.0, 137 mM NaCl, 2.7 mM KCl, 1 mM MgCl2, 0.05% BSA & 0.005% Tween 20) were then added to each well (5 uL/well) using Multidrop Combi (Thermo Scientific), followed by 5 uL/well substrate (purchased from BPS Bioscience, 4.5 uM final). After 45 minutes incubation at room temperature, 10 uL 2× developer solution (assay buffer with 40 uM Trypsin and 20 uM Trichostatin A) was added. The plates were then incubated 1 hour at room temperature before reading in fluorescent intensity mode at 450 nm in an Envision (Perkin Elmer) plate reader. Percent Inhibition of HDAC9 activity by compounds in each test wells was calculated by normalizing to fluorescent signal in control wells containing DMSO only. The pIC50s value of test compounds were calculated from non-linear curve fitting, using ActivityBase5 data analysis tool (IDBS), from 11 point 3× dilution series starting from 100 uM final compound concentration.\nFor dose response experiments, normalized data were fit by ABASE/XC50 using the equation y=a+(b−a)/(1+(10^×/10^c)^d), where a is the minimum % activity, b is the maximum % activity, c is the pIC50, d is the Hill slope.\nThe pIC50s are averaged to determine a mean value, for a minimum of 2 experiments. […] For instance, the compounds of Examples 1, 38, 61 and 79 inhibited HDAC9 in the above method with a mean pIC50 of >6.",
  "data": [
    {"smiles": "N#Cc1ccc(N2CCN(C(=O)c3cccc(-c4noc(C(F)(F)F)n4)c3)CC2)cc1", "note": "[Example 38, 4-(4-(3-(5-(Trifluoromethyl)-1,2,4-oxadiazol-3-yl)benzoyl)piperazin-1-yl)benzonitrile]", "values": [
      {"measurement": "IC50", "value": "< 1", "unit": "µM"}
    ]},
    {"smiles": "O=C(c1cccc(-c2noc(C(F)(F)F)n2)c1)N1CCCN(c2ccc(C(F)(F)F)cn2)CC1", "note": "[Example 1, (3-(5-(Trifluoromethyl)-1,2,4-oxadiazol-3-yl)phenyl)(4-(5-(trifluoromethyl)pyridin-2-yl)-1,4-diazepan-1-yl)methanone]", "values": [
      {"measurement": "IC50", "value": "< 1", "unit": "µM"}
    ]},
    {"smiles": "O=C(c1cccc(-c2noc(C(F)(F)F)n2)c1)N1CC(Cc2nc(-c3ccc(F)cc3)cs2)C1", "note": "[Example 79, (3-((4-(4-Fluorophenyl)thiazol-2-yl)methyl)azetidin-1-yl)(3-(5-(trifluoromethyl)-1,2,4-oxadiazol-3-yl)phenyl)methanone]", "values": [
      {"measurement": "IC50", "value": "< 1", "unit": "µM"}
    ]},
    {"smiles": "N#Cc1ccc(N2CCN(C(=O)c3cccc(-c4ccc(C(=O)C(F)(F)F)s4)c3)CC2)nc1", "note": "[Example 61, 6-(4-(3-(5-(2,2,2-Trifluoroacetyl)thiophen-2-yl)benzoyl)piperazin-1-yl)nicotinonitrile]", "values": [
      {"measurement": "IC50", "value": "< 1", "unit": "µM"}
    ]}
  ]
}
